Data: PubChem BioAssay AID1963959 (Molecular Pharmacology Branch, DTP, NCI, 2024)
Values joined by “and” are separate entries in the source; they are usually repeats but may differ in a detail not shown here. Identical values can stand only once.

Test system: T-47D spheroids with HUVEC/MSC, viability
Experiment: Anticancer human tumor T-47D cell line growth inhibition [PI3K];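 also: spheroids exposed to agents for seven days before reading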;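 as to viability, T/C: percent of DMSO vehicle control luminescence so 100% = untreated growth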
Conditions: for viability, T/C: stronger effect = lower value
Text: Combinatorial screen of targeted agents with the PI3K inhibitors inavolisib, alpelisib, duvelisib, and copanlisib in multi-cell type tumor spheroids
A high-throughput screen of multi-cell type tumor spheroids was designed to identify active combinations of targeted small molecules and PI3K pathway inhibitors. Complex spheroids include a stromal component modeled by human endothelial cells (HUVEC) and fibroblasts modeled by human mesenchymal stem cells (MSCs). The concentration ranges selected for each drug and investigational agent were based upon clinically achievable concentrations if the clinical Cmax of the agent was known.
Compounds. The drugs and investigational agents: inavolisib (NSC800729), alpelisib (NSC765974), duvelisib (NSC772469), copanlisib (NSC816437), ipatasertib (NSC767898), afuresertib (NSC778305), talazoparib (NSC767125), sapanisertib (NSC764658), selumetinib (NSC741078), tovorafenib (DAY101, NSC766906), vemurafenib (NSC761431), ravoxertinib (NSC781343), sotorasib (NSC818433), MRTX1133 (NSC 836407), abemaciclib (NSC 768073), palbociclib (NSC758247), venetoclax (NSC 766270), SY5609 (NSC837396), enzalutamide (NSC755605), and darolutamide (NSC825331), were obtained from the National Cancer Institute (NCI) Developmental Therapeutics Program Chemical Repository. The FDA-approved anticancer drug set is available from the NCI Developmental Therapeutics Program. […] The stock solutions were prepared in dimethyl sulfoxide (DMSO, Sigma-Aldrich, St. Louis, MO, cat. D2650) at 800-fold the tested concentration and stored at -70 degrees C prior to their use. All drugs and investigational agents were tested over a range starting from a high concentration at or near the clinical Cmax and decreasing in half-log increments. If the clinical Cmax for an agent had not been determined, the highest concentration tested was 10 microM.
Cell Culture. All cells were maintained in an incubator at 37 degrees C and 5% CO2 with 95% humidity. The PDC lines were cultured according to standard operating procedures established by the NCI PDMR (https://pdmr.cancer.gov/sops/default.htm). All PDCs were thawed and cultured in Matrigel-coated flasks prepared with a working solution of 1X Ham's F-12 nutrient mix, without supplementation (Invitrogen, Waltham, MA, cat. 11765054), 100 U/mL penicillin-streptomycin (Invitrogen, cat. 15140122), and 2.5% Matrigel (Corning Inc., Corning, NY, cat. 354248) for the first three passages. The 354836-022-R-J1-PDC, 475296-252-R-J1-PDC, and 997726-040-R-J2-PDC lines were cultured in 6A media, which includes advanced DMEM/F-12 (Thermo Fisher Scientific, cat. 12634028), 10 mM HEPES (Thermo Fisher Scientific, cat. 15630080), 1X GlutaMAX supplement (Thermo Fisher Scientific, cat. 35050061), 0.1 mg/mL primocin (InvivoGen, San Diego, CA, cat. ant-pm-2), 10% defined fetal bovine serum, heat inactivated (HyClone Laboratories Inc., Logan, UT, cat. SH30070.03HI), 50% L-WRN conditioned media (ATCC, cat. CRL-3276), 1.25 mM N-Acetyl-L-cysteine (Sigma-Aldrich, cat. A9165), 10 mM nicotinamide (Sigma-Aldrich, cat. N0636), 1X B-27 supplement (Thermo Fisher Scientific, cat. 17504044), 1X N-2 supplement (Thermo Fisher Scientific, cat. 17502048), and 10 microM Y-27632 dihydrochloride (Tocris Bioscience, Bristol, United Kingdom, cat. 1254). The 624824-186-R-J2-PDC line was cultured in 6C/Colon 1B media, which includes all 6A media components plus 50 ng/mL human EGF recombinant protein (Thermo Fisher Scientific, cat. PHG0311). […]

[1] = compound alone, run of 04/24/2023
[2] = compound alone, run of 04/25/2023

Structure (SMILES)	viability, T/C (compound 0.1 µM)	viability, T/C (compound 3.16 µM)	viability, T/C (compound 10 µM)	IC50 (curve of compound)	viability, T/C (compound 0.0316 µM)	viability, T/C (compound 1 µM)	viability, T/C (compound 0.316 µM)	also measured
C#Cc1c(F)ccc2cc(O)cc(-c3ncc4c(N5CC6CCC(C5)N6)nc(OCC56CCCN5CC(F)C6)nc4c3F)c12 (configuration not stated)	99.3% [middle of 4 runs]	98.4% [middle of 4 runs]	96.3% [middle of 4 runs]	> 10 µM	–	–	–	–
C=CC(=O)N1CCN(c2nc(=O)n(-c3c(C)ccnc3C(C)C)c3nc(-c4c(O)cccc4F)c(F)cc23)C(C)C1 (configuration not stated)	96.8% [middle of 4 runs]	–	–	> 10 µM	94.8% (2×) and 125% and 115%	98.7% and 126% (2×) and 94.5%	–	–
CC(=O)c1c(C)c2cnc(Nc3ccc(N4CCNCC4)cn3)nc2n(C2CCCC2)c1=O	86.7% [middle of 4 runs]	–	–	> 0.1 µM	96.2% [middle of 4 runs]	–	–	viability, T/C (compound 0.000316 µM): 94.9% [middle of 4 runs]; viability, T/C (compound 0.001 µM): 98% [middle of 4 runs]
CC(C)NCC(C(=O)N1CCN(c2ncnc3c2C(C)CC3O)CC1)c1ccc(Cl)cc1 (configuration not stated)	83.5% [middle of 4 runs]	64.1% [middle of 4 runs]	52.3% [middle of 4 runs]	> 10 µM	99.4% [middle of 4 runs]	79.4% [middle of 4 runs]	84.9% [middle of 4 runs]	–
CC(C)n1nc(-c2ccc3oc(N)nc3c2)c2c(N)ncnc21	35.7% [middle of 4 runs]	–	–	70.6 nM [middle of 4 runs]	87.3% [middle of 4 runs]	–	–	viability, T/C (compound 0.000316 µM): 104% [middle of 4 runs]; viability, T/C (compound 0.001 µM): 96.4% [middle of 4 runs]; viability, T/C (compound 0.00316 µM): 97.8% [middle of 4 runs]
CC(Cn1ccc(-c2ccc(C#N)c(Cl)c2)n1)NC(=O)c1cc(C(C)O)[nH]n1 (configuration not stated)	107% [middle of 4 runs]	89.8% [middle of 4 runs]	58.7% [middle of 4 runs]	> 10 µM	100% [middle of 4 runs]	95.2% [middle of 4 runs]	92.3% [middle of 4 runs]	–
CC(Nc1ccc2c(c1)OCCn1cc(N3C(=O)OCC3C(F)F)nc1-2)C(N)=O (configuration not stated)	–	–	–	–	93.7% [middle of 8 runs]	57.9% [middle of 8 runs]	79.9% [middle of 8 runs]	viability, T/C (compound 0.00316 µM): 95.1% [middle of 8 runs]; IC50 [1]: > 1 µM
CC(Nc1ncnc2nc[nH]c12)c1cc2cccc(Cl)c2c(=O)n1-c1ccccc1 (configuration not stated)	–	–	–	–	96.2% [middle of 8 runs]	–	96.2% [middle of 8 runs]	IC50 [2]: > 10 µM
CC1(C)CCC(CN2CCN(c3ccc(C(=O)NS(=O)(=O)c4ccc(NCC5CCOCC5)c([N+](=O)[O-])c4)c(Oc4cnc5[nH]ccc5c4)c3)CC2)=C(c2ccc(Cl)cc2)C1	99% [middle of 4 runs]	–	–	> 10 µM	93.2% [middle of 4 runs]	–	99% and 91.9% and 111% (2×)	–
CC1(C)CCC(Nc2ncc(C(F)(F)F)c(-c3c[nH]c4c(P(C)(C)=O)c(C#N)ccc34)n2)CN1 (configuration not stated)	72% [middle of 4 runs]	79.9% [middle of 4 runs]	54.5% (2×) and 54.6% and 58.2%	> 10 µM	66% (2×) and 68.7% and 70.4%	79.7% [middle of 4 runs]	69.9% [middle of 4 runs]	–
CCCS(=O)(=O)Nc1ccc(F)c(C(=O)c2c[nH]c3ncc(-c4ccc(Cl)cc4)cc23)c1F	94.3% [middle of 4 runs]	–	47.2% [middle of 4 runs]	9.4 µM [middle of 4 runs]	91% and 97.4% (2×) and 99.9%	107% [middle of 4 runs]	106% [middle of 4 runs]	–
CCN1CCN(Cc2ccc(Nc3ncc(F)c(-c4cc(F)c5nc(C)n(C(C)C)c5c4)n3)nc2)CC1	90.4% [middle of 4 runs]	–	–	> 1 µM	102% [middle of 4 runs]	91.2% [middle of 4 runs]	90.4% [middle of 4 runs]	viability, T/C (compound 0.00316 µM): 104% [middle of 4 runs]; viability, T/C (compound 0.01 µM): 91.4% [middle of 4 runs]
CNC(=O)c1ccc(N2C(=S)N(c3ccc(C#N)c(C(F)(F)F)c3)C(=O)C2(C)C)cc1F	95.9% [middle of 4 runs]	91.4% [middle of 4 runs]	89.3% [middle of 4 runs]	> 10 µM	106% [middle of 4 runs]	108% [middle of 4 runs]	105% [middle of 4 runs]	–
COc1c(OCCCN2CCOCC2)ccc2c3n(c(=NC(=O)c4cnc(N)nc4)nc12)CCN3	45.4% [middle of 8 runs]	–	–	–	70.4% [middle of 8 runs]	7.09% [middle of 8 runs]	20.5% [middle of 8 runs]	viability, T/C (compound 0.01 µM): 99.1% [middle of 8 runs]; IC50 [2]: 86.9 nM [middle of 8 runs]
C[C@@H](NC(=O)c1ncnc(N)c1Cl)c1ncc(C(=O)Nc2cc(C(F)(F)F)c(Cl)cn2)s1	–	99.1% [middle of 4 runs]	91% [middle of 4 runs]	> 10 µM	93.7% [middle of 4 runs]	–	89.2% and 106% (2×) and 91.6%	–
Cc1nc(NC(=O)N2CCCC2C(N)=O)sc1-c1ccnc(C(C)(C)C(F)(F)F)c1 (configuration not stated)	96.2% [middle of 8 runs]	77% [middle of 7 runs]	39.9% [middle of 8 runs]	–	97.8% [middle of 8 runs]	97.6% [middle of 8 runs]	–	IC50 [1]: 7.37 µM [middle of 8 runs]
Cn1cnc2c(F)c(Nc3ccc(Br)cc3Cl)c(C(=O)NOCCO)cc21	–	–	–	> 3 µM	–	–	–	viability, T/C (compound 0.00949 µM): 98.5% [middle of 4 runs]; viability, T/C (compound 0.0949 µM): 95.3% [middle of 4 runs]; viability, T/C (compound 0.3 µM): 98.9% [middle of 4 runs]; viability, T/C (compound 0.949 µM): 88% [middle of 4 runs]; viability, T/C (compound 3 µM): 95.5% [middle of 4 runs]
Cn1ncc(Cl)c1-c1cc(C(=O)NC(CN)Cc2cccc(F)c2)sc1Cl (configuration not stated)	–	70.3% [middle of 4 runs]	89% [middle of 4 runs]	> 10 µM	102% [middle of 4 runs]	81.8% [middle of 4 runs]	79.4% [middle of 4 runs]	–
Cn1nccc1Nc1nccc(-c2ccn(C(CO)c3ccc(Cl)c(F)c3)c(=O)c2)n1 (configuration not stated)	93.2% [middle of 4 runs]	99.5% [middle of 4 runs]	82.5% and 92.7% and 101% (2×)	> 10 µM	103% [middle of 4 runs]	–	105% [middle of 4 runs]	–
Cn1ncnc1[C@H]1c2n[nH]c(=O)c3cc(F)cc(c23)N[C@@H]1c1ccc(F)cc1	–	–	–	> 0.1 µM	101% [middle of 4 runs]	–	–	viability, T/C (compound 0.000316 µM): 103% [middle of 4 runs]; viability, T/C (compound 0.001 µM): 98.3% [middle of 4 runs]; viability, T/C (compound 0.01 µM): 109% [middle of 4 runs]
